Data set [1] can be described thus: 14-day Q3D oral toxicology study in cynomolgus monkeys. To be noted: cynomolgus monkey, in vivo; cynomolgus monkeys; 160, 500 or 2000 mg/kg PO Q3D for 14 days (5 doses); read-out: no-observed-adverse-effect level (NOAEL). On the procedure: (§1) In cynomolgus monkeys administered 160, 500, or 2000 mg/kg PO Q3D for 14 days (5 doses total), the NOAEL was 160 mg/kg.
(§2) Precautions related to cardiovascular safety in this clinical study included frequent measurement of vital signs (e.g., blood pressure, pulse, and body temperature) and frequent electrocardiograms (ECGs).

The test system of another data set is cynomolgus monkey. The data set is described as above. Conditions: in vivo, po, 2000 mg/kg. As to the method:
as §1, §2

Data set [2] deals with rodent models of stress-induced depressive behavior. Put plainly: Preclinical rodent models of stress-induced depressive behavior. Conditions: head-to-head with ketamine. The class given is in vivo. The source says:
(§3) Compound A [(S)-2-amino-5,5-difluoro-4,4-dimethylpentanoic acid] is a novel, orally bioavailable, specific, small molecule that activates mTORC1 pathway signaling in the brain, including those centers responsible for mood.

Data set [3] has as its system nonhuman primate model of anxiolytic/depressive behavioral responses. Put plainly: Nonhuman primate model of anxiolytic/depressive behavioral responses. The class given is in vivo. Conditions: versus ketamine.
Description: as §3

The subject of data set [4] is N-methyl-D-aspartate (NMDA) receptor. Put plainly: Nonclinical NMDA receptor modulation / antagonist activity. Conditions: nonclinical studies.
Description: as §3
NMDA antagonists, in particular ketamine, are associated with mental status changes that have similarity to psychotic or dissociative symptoms seen in psychiatric disorders.

Data set [5] in a line: Nonclinical studies, observation of seizures. It counts as in vivo.
Data set [6] is described as follows: Example 1 Part A: single ascending dose plasma pharmacokinetics. The class given is in vivo, human. On the procedure:
The in-house period was 6 days/5 nights.
Frequent PK sampling was included in the study to evaluate single-dose PK. Part B of the study included assessments designed to assess preliminary efficacy.
Single ascending doses of compound A were assessed in healthy adult males and females in Part A of a two-part, randomized, double-blind, placebo-controlled, first-in-humans Study (see Example 1, Part A).

The nature of data set [7]: Example 2: single-dose pharmacokinetics in plasma and CSF. The class given is in vivo, human. To be noted: healthy males, single oral 2400 mg. On the procedure: Pharmacokinetics Endpoints: The following PK parameters for compound A were determined in serum and CSF, as appropriate: • Cmax: Maximum compound A concentration determined directly from the concentration-time profile • Tmax: Time of maximum compound A concentration determined directly from the concentration-time profile • AUClast: Area under the concentration-time curve from pre-dose (time 0) to the time of the last quantifiable concentration (tlast) calculated using the linear-log trapezoidal rule • AUCinf: Area under the concentration-time curve from pre-dose (time 0) extrapolated to infinite time (AUClast+Clast/λz) calculated using the linear-log trapezoidal rule • AUC% extrap: Percentage of AUCinf that is due to extrapolation beyond tlast • λz: The terminal elimination rate constant determined by selection of at least 3 data points on the terminal phase of the concentration-time curve. • t1/2: Terminal elimination half-life calculated as: ln 2/λz • CL/F: Apparent body clearance calculated as: Dose/AUCinf • Vz/F: Apparent volume of distribution calculated as: Dose/(AUCinf*λz) • MRT: Mean residence time (of the unchanged drug in the systemic circulation) as: AUMC/AUC • RA (AUC): Accumulation CSF/plasma ratio calculated as the ratios of the AUCinf,ss at steady state and AUCτ,sd after single dosing calculated as: AUCτ,ss/AUCτ,sd • RA (Cmax): Accumulation CSF/plasma ratio calculated as ratio of Cmax,ss at steady state and Cmax,sd after single dosing calculated as: Cmax,ss/Cmax,sd • CSF compound A concentrations over time and the ratio compared with time-matched plasma concentrations were also evaluated Overall Study Design: […]
Pharmacokinetic, Metabolomic, and Proteomic Variables: Blood and CSF samples for the PK, metabolomics, and proteomic analysis of compound A were collected at various time points and were processed and analyzed by a validated method for determining concentrations of compound A.

Data set [8] relates to qEEG and event-related potential (ERP). Put plainly: Example 3: qEEG and event-related potential pharmacodynamics. The class given is in vivo, human. Conditions: healthy males. The source says:
Pharmacodynamic Endpoints: The primary pharmacodynamic endpoint was the change from baseline in the difference between the compound A group and the placebo group on qEEG parameters, including:
Fractal and oscillatory EEG band amplitudes
Fractal and oscillatory EEG band intra- and interhemispheric coherences
The secondary pharmacodynamic endpoints were the changes from baseline in the difference between the compound A group and the placebo group in ERP parameters, including: • Mismatch negativity (MMN) amplitude and latency • P300a amplitude and latency • P300b amplitude and latency • N100 amplitude and latency • N200 amplitude and latency • P200 amplitude and latency • Auditory steady-state response (ASSR) peak-to-peak amplitude • ASSR event-related spectral perturbation (ERSP) • ASSR inter-trial phase coherence (ITPC) • Mean time scores of qEEG parallel factor analysis (PARAFAC) atoms endpoints
Pharmacodynamics were assessed via qEEG and event-related potential (ERP). Frequent PK sampling was included in the study to evaluate the PK of two doses of compound A given approximately 48 hours apart. A PK/PD model was developed that measures qEEG and ERP changes as a function of plasma concentration of compound A as well as determines whether there are any PK/PD differences between Dose 1 and Dose 2 effects.

[9] abbreviates: 2400 mg, not evident in placebo group.

“Also recorded” adds a separate entry of the source. Bounds are passed on as bounds.

The term NOAEL denotes the highest dose or exposure tested at which no adverse effect was seen. What is called Tmax is the time from dosing to the highest level. Broadly, the half-life is the time in which the quantity being followed falls by half. Turning to `CC(C)(C[C@H](N)C(=O)O)C(F)F` [Compound A, (S)-2-amino-5,5-difluoro-4,4-dimethylpentanoic acid], the NOAEL at 14 days in data set [1] is 160 mg/kg. Further, the “adverse effects at 2000 mg/kg” value in the data set with cynomolgus monkey was “dehydration in one animal, likely secondary to vomiting, and increased aspartate aminotransferase (AST) in one animal”. In addition, in data set [2], the “adverse effects in rodent models” value is “without producing significant adverse effects” and the antidepressant effects entry is “rapid antidepressant effects comparable to those of ketamine”. The pharmacological activity result in data set [3] was “comparable to that of ketamine”. Moreover, in data set [4], the “NMDA receptor modulation / antagonist activity” value is listed as “not associated with N-methyl-D-aspartate (NMDA) receptor modulation; also recorded: did not demonstrate NMDA antagonist activity”. Further, the seizures result in data set [5] was “seizures have not been observed”. In data set [6] (150 mg to 2400 mg), the “CL/F and Vz/F estimates versus dose” value is “increased with dose”; the “dose proportionality of Cmax and AUC∞” value is reported as “slightly less than dose-proportional”. The Tmax in [6] (both sexes, human, healthy volunteers, single oral 150-2400 mg, range among cohorts, post dose, read-out: Median Tmax) was 0.5 to 1.5 h. In addition, the half-life in [6] (both sexes, human, healthy volunteers, single oral 150-2400 mg, range among cohorts, read-out: terminal elimination half-life) lay within 12.7 to 15.9 h. Also, in [7], the “uptake into circulation and brain exposure” value is reported as “rapid uptake of compound A into circulation with rapid brain exposure”. Moreover, in data set [7] (FIG. 8), the “human CSF levels” value is reported as “consistent with rodent levels at the effective dose”. In addition, in data set [7] (male, human, in vivo), the half-life was in the range of 10 to 13 h. In data set [8] (2400 mg Day 1 and Day 3), the “time to EEG activation after the first and second doses” value is at most 1 h. Besides, in data set [8] (setting [9]), the “ASSR high-frequency (harmonic) resonances” value is “increased” and the “peak latency of N100, P200, P300A components in auditory oddball tasks” value is “reduced”. Also, in [8] (2400 mg, qEEG), the “changes in low- and high-frequency EEG bands” value was “dose-dependent decreases in low-frequency EEG bands (delta, theta) and increases in high-frequency EEG bands (gamma)”; the “delta and theta band amplitudes” value is listed as “significantly decreased”; the “high-frequency band amplitudes (higher beta and gamma bands)” value was “increased”; the qEEG band coherences result is “increased coherence in alpha, beta, and gamma bands”. Further, the theta-beta ratios result in data set [8] (2400 mg, qEEG) was “decreased”. Besides, the alpha band amplitudes result in [8] (2400 mg, qEEG, within 1 hour after dosing) is reported as “decreased”. In data set [8] (single dose 2400 mg, versus placebo), the “neural activation on qEEG” value was “rapid and significant neural activation”.
